{
  "source": "paper PMC10907298",
  "about": "(Nature chemical biology, 2023)",
  "key": {"human STING R95E": {"molecular_target": "human STING R95E (Homo sapiens, UniProt Q86WV6, R95E)", "sequence (Q86WV6 whole entry R95E)": "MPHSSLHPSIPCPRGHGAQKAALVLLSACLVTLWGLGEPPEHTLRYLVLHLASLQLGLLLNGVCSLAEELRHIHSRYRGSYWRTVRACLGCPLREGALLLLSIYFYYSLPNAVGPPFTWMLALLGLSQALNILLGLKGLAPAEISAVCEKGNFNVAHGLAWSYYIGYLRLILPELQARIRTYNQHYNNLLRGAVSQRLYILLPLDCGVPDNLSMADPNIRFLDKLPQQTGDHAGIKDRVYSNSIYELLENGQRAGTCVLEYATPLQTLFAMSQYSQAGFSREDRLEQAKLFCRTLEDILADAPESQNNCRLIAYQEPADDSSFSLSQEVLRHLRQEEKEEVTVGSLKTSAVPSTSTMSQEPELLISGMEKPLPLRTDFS", "assay": "ISRE reporter assay with STING co-transfection in HEK293T cells"}, "human STING S27V": {"molecular_target": "human STING S27V (Homo sapiens, UniProt Q86WV6, S27V)", "sequence (Q86WV6 whole entry S27V)": "as the sequence (Q86WV6 whole entry R95E) above, with S27V, E95R counted along it", "assay": "ISRE reporter assay with STING co-transfection in HEK293T cells"}, "B16-SIY tumors": {"test_system": "B16-SIY tumors", "assay": "B16-SIY flank tumor model in human STING knock-in mice", "format": "in vivo, mouse", "settings": "individual animals"}, "[1]": {"molecular_target": "purified human STING R95A (Homo sapiens, UniProt Q86WV6, R95A)", "sequence (Q86WV6 1-343 R95A)": "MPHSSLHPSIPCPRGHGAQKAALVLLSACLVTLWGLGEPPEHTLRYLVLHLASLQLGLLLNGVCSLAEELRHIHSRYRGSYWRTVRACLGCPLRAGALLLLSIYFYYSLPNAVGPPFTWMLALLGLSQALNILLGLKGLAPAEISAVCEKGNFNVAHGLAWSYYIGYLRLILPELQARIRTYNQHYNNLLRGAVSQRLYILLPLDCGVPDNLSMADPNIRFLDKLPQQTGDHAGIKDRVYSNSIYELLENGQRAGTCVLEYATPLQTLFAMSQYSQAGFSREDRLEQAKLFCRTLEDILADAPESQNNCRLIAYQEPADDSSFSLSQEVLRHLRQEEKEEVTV", "assay": "native gel analysis of STING oligomerization", "settings": "R95A mutant"}},
  "note": "Several values for one entry are separate records, joined by “and”; a condition that tells them apart may be missing. Equal entries are not always repeated.",
  "data": [
    {"molecule": "COc1cc(C(=O)O)ccc1NCc1ccc(C2(C(C)(C)C)OCC(C)(C)CO2)cc1", "note": "[NVS-STG2]", "values": [
      {"measurement": "STING activation in words", "setting": "human STING R95E", "value": "essentially irresponsive"},
      {"measurement": "ISRE reporter activity, mean", "setting": "human STING S27V; Log[μM] 0.2", "value": 28.6},
      {"measurement": "ISRE reporter activity, mean", "setting": "human STING S27V; Log[μM] 0.5", "value": 35.2},
      {"measurement": "ISRE reporter activity, mean", "setting": "human STING S27V; Log[μM] 0.8", "value": 40.6},
      {"measurement": "ISRE reporter activity, mean", "setting": "human STING S27V; Log[μM] 1.1", "value": 46.1},
      {"measurement": "ISRE reporter activity, mean", "setting": "human STING S27V; Log[μM] 1.4", "value": 46.2},
      {"measurement": "ISRE reporter activity, mean", "setting": "human STING S27V; Log[μM] -0.1", "value": 22.7},
      {"measurement": "ISRE reporter activity, mean", "setting": "human STING S27V; Log[μM] -0.4", "value": 13.4},
      {"measurement": "ISRE reporter activity, mean", "setting": "human STING S27V; Log[μM] -0.7", "value": 7.4},
      {"measurement": "ISRE reporter activity, mean", "setting": "human STING S27V; Log[μM] -1", "value": 3.8},
      {"measurement": "ISRE reporter activity, mean", "setting": "human STING S27V; Log[μM] -1.3", "value": 1.4},
      {"measurement": "Tumor Volume", "setting": "B16-SIY tumors; 400μg intratumorally on day 8, day 8 post implant", "value": "66 mm3 and 90 mm3 and 97 mm3 and 105 mm3 and 146 mm3 and 151 mm3 and 169 mm3 and 182 mm3 and 216 mm3"},
      {"measurement": "Tumor Volume", "setting": "B16-SIY tumors; 400μg intratumorally on day 8, day 10 post implant", "value": "54 mm3 and 77 mm3 and 203 mm3 and 84 mm3 and 50 mm3 and 285 mm3 and 89 mm3 and 124 mm3 and 240 mm3"},
      {"measurement": "Tumor Volume", "setting": "B16-SIY tumors; 400μg intratumorally on day 8, day 13 post implant", "value": "38 mm3 and 77 mm3 and 85 mm3 and 44 mm3 and 173 mm3 and 290 mm3 and 65 mm3 and 86 mm3 and 178 mm3"},
      {"measurement": "Tumor Volume", "setting": "B16-SIY tumors; 800μg intratumorally on day 8, day 8 post implant", "value": "71 mm3 and 84 mm3 and 98 mm3 and 102 mm3 and 148 mm3 and 150 mm3 and 177 mm3 and 223 mm3"},
      {"measurement": "Tumor Volume", "setting": "B16-SIY tumors; 800μg intratumorally on day 8, day 10 post implant", "value": "62 mm3 and 28 mm3 and 136 mm3 and 99 mm3 and 76 mm3 and 125 mm3 and 109 mm3 and 177 mm3"},
      {"measurement": "Tumor Volume", "setting": "B16-SIY tumors; 800μg intratumorally on day 8, day 13 post implant", "value": "37 mm3 and 60 mm3 and 126 mm3 and 77 mm3 and 50 mm3 and 150 mm3 and 71 mm3 and 185 mm3"},
      {"measurement": "induction of STING oligomerization in words", "setting": "[1]", "value": "notable defect in higher-order oligomer formation"}
    ]}
  ]
}
